# Assay results as given in ChEMBL document CHEMBL3046594, “Bioactive metabolites from an endophytic fungus of Aspergillus species isolated from seeds of Gloriosa superba Linn” (Med Chem Res, 2013).
# Active and inactive are the calls of the source. The calls are words filed in the database; no cut-off is given here.
# Tests used:
# [1] = tested on: Salmonella typhi; experiment: Antibacterial activity against Salmonella enterica subsp. enterica serovar Typhi MTCC 1251 assessed as growth inhibition at 5 ug/disk after 24 hr by disk diffusion method; assay type: functional; conditions: MTCC 1251, 24 h, read-out: DIZ
# [2] = tested on: Staphylococcus aureus; experiment: Antibacterial activity against Staphylococcus aureus MTCC 96 assessed as growth inhibition at 5 ug/disk after 24 hr by disk diffusion method; assay type: functional; conditions: MTCC 96, 24 h, read-out: DIZ
# [3] = tested on: Pseudomonas aeruginosa; experiment: Antibacterial activity against Pseudomonas aeruginosa MTCC 2642 assessed as growth inhibition at 5 ug/disk after 24 hr by disk diffusion method; assay type: functional; conditions: MTCC 2642, 24 h, read-out: DIZ
# [4] = tested on: Escherichia coli; experiment: Antibacterial activity against Escherichia coli MTCC 82 assessed as growth inhibition at 5 ug/disk after 24 hr by disk diffusion method; assay type: functional; conditions: MTCC 82, 24 h, read-out: DIZ
# [5] = tested on: Bacillus subtilis; experiment: Antibacterial activity against Bacillus subtilis MTCC 2451 assessed as growth inhibition at 5 ug/disk after 24 hr by disk diffusion method; assay type: functional; conditions: MTCC 2451, 24 h, read-out: DIZ
# [6] = tested on: Candida albicans; experiment: Antifungal activity against Candida albicans MTCC 3018 assessed as growth inhibition at 2 mg/mL after 48 hr by disk diffusion method; assay type: functional
# [7] = tested on: MCF7; experiment: Cytotoxicity against Homo sapiens (human) MCF7 cells assessed as growth inhibition at 10 to 100 uM after 48 hr by SRB assay; assay type: functional, cell-based
# [8] = tested on: Saccharomyces cerevisiae; experiment: Antifungal activity against Saccharomyces cerevisiae MTCC 172 assessed as growth inhibition at 2 mg/mL after 48 hr by disk diffusion method; assay type: functional
# [9] = tested on: Staphylococcus aureus; experiment: Antibacterial activity against Staphylococcus aureus MTCC 96 assessed as growth inhibition at 2 mg/mL after 24 hr by disk diffusion method; assay type: functional
# [10] = tested on: Goffeauzyma gastrica; experiment: Antifungal activity against Cryptococcus gastricus MTCC 1715 assessed as growth inhibition at 2 mg/mL after 48 hr by disk diffusion method; assay type: functional
# [11] = tested on: Escherichia coli; experiment: Antibacterial activity against Escherichia coli MTCC 82 assessed as growth inhibition at 2 mg/mL after 24 hr by disk diffusion method; assay type: functional
# [12] = tested on: THP-1; experiment: Cytotoxicity against Homo sapiens (human) THP1 cells assessed as growth inhibition at 10 to 100 uM after 48 hr by SRB assay; assay type: functional, cell-based
# [13] = tested on: Bacillus subtilis; experiment: Antibacterial activity against Bacillus subtilis MTCC 2451 assessed as growth inhibition at 2 mg/mL after 24 hr by disk diffusion method; assay type: functional
# [14] = tested on: Salmonella typhi; experiment: Antibacterial activity against Salmonella enterica subsp. enterica serovar Typhi MTCC 1251 assessed as growth inhibition at 2 mg/mL after 24 hr by disk diffusion method; assay type: functional, organism-based
# [15] = tested on: Pseudomonas aeruginosa; experiment: Antibacterial activity against Pseudomonas aeruginosa MTCC 2642 assessed as growth inhibition at 2 mg/mL after 24 hr by disk diffusion method; assay type: functional
# [16] = tested on: Goffeauzyma gastrica; experiment: Antifungal activity against Cryptococcus gastricus MTCC 1715 assessed as growth inhibition at 10 ug/disk after 48 hr by disk diffusion method; assay type: functional; conditions: MTCC 1715, 48 h, read-out: DIZ
# [17] = tested on: Saccharomyces cerevisiae; experiment: Antifungal activity against Saccharomyces cerevisiae MTCC 172 assessed as growth inhibition at 10 ug/disk after 48 hr by disk diffusion method; assay type: functional; conditions: MTCC 172, 48 h, read-out: DIZ
# [18] = tested on: Candida albicans; experiment: Antifungal activity against Candida albicans MTCC 3018 assessed as growth inhibition at 10 ug/disk after 48 hr by disk diffusion method; assay type: functional; conditions: MTCC 3018, 48 h, read-out: DIZ
# [19] = tested on: THP-1; experiment: Cytotoxicity against Homo sapiens (human) THP1 cells assessed as growth inhibition at 10 uM after 48 hr by SRB assay; assay type: functional; conditions: THP-1, 48 h, read-out: GI
# [20] = tested on: OVCAR-5; experiment: Cytotoxicity against Homo sapiens (human) OVCAR5 cells assessed as growth inhibition at 10 uM after 48 hr by SRB assay; assay type: functional; conditions: OVCAR-5, 48 h, read-out: GI
# [21] = tested on: Bacillus subtilis; experiment: Antibacterial activity against Bacillus subtilis MTCC 2451 assessed as growth inhibition after 24 hr by broth dilution method; assay type: functional; conditions: MTCC 2451, 24 h
# [22] = tested on: Escherichia coli; experiment: Antibacterial activity against Escherichia coli MTCC 82 assessed as growth inhibition after 24 hr by broth dilution method; assay type: functional; conditions: MTCC 82, 24 h
# [23] = tested on: Pseudomonas aeruginosa; experiment: Antibacterial activity against Pseudomonas aeruginosa MTCC 2642 assessed as growth inhibition after 24 hr by broth dilution method; assay type: functional; conditions: MTCC 2642, 24 h
# [24] = tested on: THP-1; experiment: Cytotoxicity against Homo sapiens (human) THP1 cells assessed as growth inhibition after 48 hr by SRB assay; assay type: functional, cell-based; conditions: THP-1, 48 h
# [25] = tested on: THP-1; experiment: Cytotoxicity against Homo sapiens (human) THP1 cells assessed as growth inhibition at 100 uM after 48 hr by SRB assay; assay type: functional; conditions: THP-1, 48 h, read-out: GI
# [26] = tested on: THP-1; experiment: Cytotoxicity against Homo sapiens (human) THP1 cells assessed as growth inhibition at 50 uM after 48 hr by SRB assay; assay type: functional; conditions: THP-1, 48 h, read-out: GI
# [27] = tested on: THP-1; experiment: Cytotoxicity against Homo sapiens (human) THP1 cells assessed as growth inhibition at 30 uM after 48 hr by SRB assay; assay type: functional; conditions: THP-1, 48 h, read-out: GI
# [28] = tested on: OVCAR-5; experiment: Cytotoxicity against Homo sapiens (human) OVCAR5 cells assessed as growth inhibition at 50 uM after 48 hr by SRB assay; assay type: functional; conditions: OVCAR-5, 48 h, read-out: GI
# [29] = tested on: Staphylococcus aureus; experiment: Antibacterial activity against Staphylococcus aureus MTCC 96 assessed as growth inhibition after 24 hr by broth dilution method; assay type: functional; conditions: MTCC 96, 24 h
# [30] = tested on: CV-1; experiment: Cytotoxicity against Chlorocebus aethiops (African green monkey) CV1 cells assessed as growth inhibition at 50 uM after 48 hr by SRB assay; assay type: functional; conditions: CV-1, 48 h, read-out: GI
# [31] = tested on: MCF7; experiment: Cytotoxicity against Homo sapiens (human) MCF7 cells assessed as growth inhibition at 100 uM after 48 hr by SRB assay; assay type: functional; conditions: MCF7, 48 h, read-out: GI
# [32] = tested on: OVCAR-5; experiment: Cytotoxicity against Homo sapiens (human) OVCAR5 cells assessed as growth inhibition at 100 uM after 48 hr by SRB assay; assay type: functional; conditions: OVCAR-5, 48 h, read-out: GI
# [33] = tested on: MCF7; experiment: Cytotoxicity against Homo sapiens (human) MCF7 cells assessed as growth inhibition after 48 hr by SRB assay; assay type: functional, cell-based; conditions: MCF7, 48 h
# [34] = tested on: MCF7; experiment: Cytotoxicity against Homo sapiens (human) MCF7 cells assessed as growth inhibition at 10 uM after 48 hr by SRB assay; assay type: functional; conditions: MCF7, 48 h, read-out: GI
# [35] = tested on: MCF7; experiment: Cytotoxicity against Homo sapiens (human) MCF7 cells assessed as growth inhibition at 50 uM after 48 hr by SRB assay; assay type: functional; conditions: MCF7, 48 h, read-out: GI
# [36] = tested on: MCF7; experiment: Cytotoxicity against Homo sapiens (human) MCF7 cells assessed as growth inhibition at 30 uM after 48 hr by SRB assay; assay type: functional; conditions: MCF7, 48 h, read-out: GI
# [37] = tested on: CV-1; experiment: Cytotoxicity against Chlorocebus aethiops (African green monkey) CV1 cells assessed as growth inhibition at 100 uM after 48 hr by SRB assay; assay type: functional; conditions: CV-1, 48 h, read-out: GI
# [38] = tested on: CV-1; experiment: Cytotoxicity against Chlorocebus aethiops (African green monkey) CV1 cells assessed as growth inhibition at 30 uM after 48 hr by SRB assay; assay type: functional; conditions: CV-1, 48 h, read-out: GI
# [39] = tested on: Candida albicans; experiment: Antifungal activity against Candida albicans MTCC 3018 assessed as growth inhibition after 48 hr by broth dilution method; assay type: functional; conditions: MTCC 3018, 48 h
# [40] = tested on: Saccharomyces cerevisiae; experiment: Antifungal activity against Saccharomyces cerevisiae MTCC 172 assessed as growth inhibition after 48 hr by broth dilution method; assay type: functional; conditions: MTCC 172, 48 h
# [41] = tested on: OVCAR-5; experiment: Cytotoxicity against Homo sapiens (human) OVCAR5 cells assessed as growth inhibition at 30 uM after 48 hr by SRB assay; assay type: functional; conditions: OVCAR-5, 48 h, read-out: GI
# [42] = tested on: Salmonella typhi; experiment: Antibacterial activity against Salmonella enterica subsp. enterica serovar Typhi MTCC 1251 assessed as growth inhibition after 24 hr by broth dilution method; assay type: functional, organism-based
# [43] = tested on: A549; experiment: Cytotoxicity against Homo sapiens (human) A549 cells assessed as growth inhibition at 100 uM after 48 hr by SRB assay; assay type: functional; conditions: A549, 48 h, read-out: GI
# [44] = tested on: Goffeauzyma gastrica; experiment: Antifungal activity against Cryptococcus gastricus MTCC 1715 assessed as growth inhibition after 48 hr by broth dilution method; assay type: functional; conditions: MTCC 1715, 48 h
smiles,measurement,setting,value
CC1(C)S[C@@H]2[C@H](NC(=O)[C@H](N)c3ccc(O)cc3)C(=O)N2[C@H]1C(=O)O [AMOXICILLIN],zone of inhibition at 5 µg/disc,[1],18 mm
same,zone of inhibition at 5 µg/disc,[2],21 mm
same,zone of inhibition at 5 µg/disc,[3],19 mm
same,zone of inhibition at 5 µg/disc,[4],20 mm
same,zone of inhibition at 5 µg/disc,[5],20 mm
COC(=O)c1ccc(O)cc1C(=O)OC,growth inhibition (GI),[6],inactive
same,growth inhibition (GI),[7],Active
same,growth inhibition (GI),[8],inactive
same,growth inhibition (GI),[9],inactive
same,growth inhibition (GI),[10],inactive
same,growth inhibition (GI),[11],inactive
same,growth inhibition (GI),[12],Active
same,growth inhibition (GI),[13],inactive
same,growth inhibition (GI),[14],inactive
same,growth inhibition (GI),[15],inactive
OC(Cn1cncn1)(Cn1cncn1)c1ccc(F)cc1F [FLUCONAZOLE],zone of inhibition at 10 µg/disc,[16],19.7 mm
same,zone of inhibition at 10 µg/disc,[17],21 mm
same,zone of inhibition at 10 µg/disc,[18],20 mm
CC(=O)NC12C=CC(=O)C=CC1c1c(cc(O)c(O)c1O)CC2C (configuration not stated),zone of inhibition at 2000 µg/mL,"[6]; MTCC 3018, 48 h, read-out: DIZ",18.9 mm
same,inhibition of growth at 10 µM,[19],48%
same,inhibition of growth at 10 µM,[20],9%
same,MIC,[21],50 µg/mL
same,MIC,[22],100 µg/mL
same,MIC,[23],> 100 µg/mL
same,IC50,[24],30 µg/mL
same,inhibition of growth at 100 µM,[25],80%
same,inhibition of growth at 50 µM,[26],67%
same,zone of inhibition at 2000 µg/mL,"[8]; MTCC 172, 48 h, read-out: DIZ",16.9 mm
same,zone of inhibition at 2000 µg/mL,"[9]; MTCC 96, 24 h, read-out: DIZ",15.7 mm
same,inhibition of growth at 30 µM,[27],55%
same,inhibition of growth at 50 µM,[28],33%
same,MIC,[29],25 µg/mL
same,zone of inhibition at 2000 µg/mL,"[10]; MTCC 1715, 48 h, read-out: DIZ",15.3 mm
same,zone of inhibition at 2000 µg/mL,"[11]; MTCC 82, 24 h, read-out: DIZ",13.3 mm
same,inhibition of growth at 50 µM,[30],19%
same,inhibition of growth at 100 µM,[31],70%
same,inhibition of growth at 100 µM,[32],43%
same,zone of inhibition at 2000 µg/mL,"[13]; MTCC 2451, 24 h, read-out: DIZ",17.5 mm
same,IC50,[33],50 µg/mL
same,inhibition of growth at 10 µM,[34],26%
same,inhibition of growth at 50 µM,[35],52%
same,growth inhibition (GI),[14],inactive
same,inhibition of growth at 30 µM,[36],33%
same,inhibition of growth at 100 µM,[37],35%
same,inhibition of growth at 30 µM,[38],13%
same,MIC,[39],12.5 µg/mL
same,MIC,[40],25 µg/mL
same,inhibition of growth at 30 µM,[41],17%
same,MIC,[42],inactive
same,zone of inhibition at 2000 µg/mL,"[15]; MTCC 2642, 24 h, read-out: DIZ",11.9 mm
same,inhibition of growth at 100 µM,[43],23%
same,MIC,[44],50 µg/mL
